Experimental findings from patent publication US8273875B2, “High performance luminescent compounds” (University of Notre Dame du Lac, priority 2009, dated 2012) are described below.

A short description of the series: Photobleaching of biotinylated fluorophores on avidin-coated magnetic particles, epifluorescent microscope. It counts as physicochemical. As to conditions: bound to 1.3 μm avidin-coated magnetic particles, constant excitation, images every 30 seconds. On the procedure: FIG. 6 illustrates a photobleaching profile of biotinylated fluorophores, in accordance with various embodiments.
In one specific, non-limiting example, the photobleaching of commercially available biotin-4-carboxyfluorescein (CF-biotin), and biotin-squaraine rotaxane (SQR-biotin) was examined by measuring the half-life of each of the probes. The dyes were incubated in excess with 1.3 μm magnetic particles coated in avidin. Following the incubation, the particles were washed of any unbound fluorophore, and the samples were then imaged on an epifluorescent microscope. The samples remained under constant excitation and images were captured every 30 seconds. Using ImageJ software, a region of interest (ROI) was drawn around the imaged magnetic particles and the mean pixel intensity was measured for each image.

Turning to biotin-4-carboxyfluorescein [CF-biotin], the “photobleaching profile (fluorescence intensity versus time)” value is “dramatic photobleaching”.
